The record followed here is the METLIN SMRT retention time set (Domingo-Almenara et al. 2019).

Molecules are shown by their SMILES.

The nature of this data set: gradient 5% acetonitrile 3 min, to 50% in 2 min, to 85% in 15 min, held 3 min, 100 µL/min. The conditions noted are these: column: Zorbax Extend-C18 2.1 x 50 mm; eluents: water / acetonitrile, 0.1% formic acid. The method in brief: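 Retention time was recorded from adduct peaks, which were picked computationally and each inspected manually. Pure standards ran in mixtures of ~100 molecules on HPLC coupled to a quadrupole time-of-flight mass spectrometer, in positive and negative ionization mode, through a Zorbax Extend-C18 column (2.1 × 50 mm, 1.8 μm) at 100 μL/min. Eluents were water and acetonitrile, each with 0.1% formic acid.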
For the molecule `COc1ccc(CN2C(=O)[C@H](OC)[C@@H]2C2=CCN(S(=O)(=O)c3cccs3)CC2)cc1`, the RP-LC retention time came out at 872 s.
`O=C(NCc1ccccc1Cl)C1COCC(=O)N1Cc1ccccc1` (stereo not drawn) gave an RP-LC retention time of 724 s.
Molecule `COc1ccc(N2CCN(c3cc(C(=O)O)c4cc(NC(C)=O)ccc4n3)CC2)cc1` registered an RP-LC retention time of 599 s.
`CCSc1ccc(-c2cccc(NC(=O)COC)c2)nn1` gave an RP-LC retention time of 762 s.
In the case of `COCCN1C(=O)CC[C@]2(C(=O)N(C)Cc3cccnc3)CCCC[C@@H]12` it was 544 s; in that of `Cc1ccccc1-c1nc2cnccn2c1NCCC(=O)NC(C)C`, 605 s.
Turning to `Clc1cccc(-c2nc(-c3ccc(-n4ccnc4)nc3)no2)c1`, the RP-LC retention time turned out to be 815 s.
Molecule `CO[C@H]1C(=O)N(C(C)C)[C@H]1C1CCN(C(=O)C2CC2)CC1` had an RP-LC retention time of 657 s.
`CC(C)n1cnc2cc(CNC(=O)Cc3cccc(C(F)(F)F)c3)ccc21` showed an RP-LC retention time of 680 s.
The molecule `O=C(c1ccccn1)N1CCCC(c2n[nH]c(C3CC3)n2)C1` (stereo not drawn) showed an RP-LC retention time of 542 s.
As to `Cc1cc(C)c2nc(C)cc(C(=O)NCC(C)C)c2c1`, the RP-LC retention time turned out to be 701 s.
Regarding `CCOC(=O)c1nc(N(CC)c2ccccc2)c2ccccc2n1`, the RP-LC retention time came to 769 s.
On to `CCS(=O)(=O)c1ccc2c(c1)N(Cc1nc(-c3ccc(C)cc3)no1)C(=O)CO2`, for which the RP-LC retention time is 945 s.
For the molecule `CCc1ccccc1NC(=O)CN1C(=O)C2CCCCN2c2ccc(S(=O)(=O)N(C)C)cc21` (stereo not drawn), the RP-LC retention time was determined as 918 s.
In the case of `O=C(NCc1cccc(Cl)c1)c1ccc(-c2nc3cccnc3n2C2CCCCC2)cc1`, the RP-LC retention time is 1050 s.
In turn, `CCOc1ccc(C(=O)N2CCC3(CC2)c2nccn2-c2ccccc2CN3C)cc1` displayed an RP-LC retention time of 632 s.
Under `CCCN1CCN(C(=O)c2noc3c2CCCCC3)CC1` stands 613 s.
In the case of `O=C(NC1(c2nc(-c3cnccn3)no2)CCCCC1)c1cc2cc(Cl)ccc2[nH]1`, the RP-LC retention time was 916 s.
Under `CN(CCCNC(=O)Cn1c(=O)c2cccn2c2ccc(F)cc21)C1CCCCC1` stands 635 s.
In the case of `CCC(C)(C)C(=O)O[C@H]1C[C@@H](C)C=C2C=C[C@H](C)[C@H](CC[C@@H](O)C[C@@H](O)CC(=O)O)[C@H]21` it was 1020 s; in that of `Cc1cccc(-c2noc(Cn3c(=O)n(Cc4ccco4)c(=O)c4ccccc43)n2)c1`, 1090 s.
In the case of `Cc1nc(-c2cn(C(C)C)c3ncccc23)sc1C(=O)NCC(C)C` it was 975 s; in that of `CC(C)NCC(O)COc1ccc(Br)cc1Br` (stereo not drawn), 586 s; in that of `Cc1ccn2cc(-c3ccc(NC(=O)c4cccs4)cc3)nc2n1`, 636 s.
`Cc1nnc(-c2ccc(S(=O)(=O)N3CCCC(C)C3)o2)o1` (stereo not drawn): the RP-LC retention time turned out to be 836 s.
`CCN1CCN(c2cc(C)c3cc(NC(=S)N4CCN(c5ccccc5)CC4)ccc3n2)CC1` returned an RP-LC retention time of 603 s.
The molecule `O=c1c2ccccc2n(Cc2nc(-c3ccc(C(F)(F)F)cc3)no2)c(=O)n1CC1CCCO1` (stereo not drawn) gave an RP-LC retention time of 1100 s.
Regarding `CN(Cc1ccccc1)C(=O)C1CCN(S(=O)(=O)c2ccc3c(c2)sc(=O)n3C)CC1`, the RP-LC retention time turned out to be 852 s.
`COCCNC(=O)c1ccc2c(c1)CCCN2C(=O)c1ccc(Cl)cc1`: the RP-LC retention time stood at 752 s.
As to `Cn1nnc2ccc(-c3noc(-c4ccc(Cl)cc4)n3)cc21`, the RP-LC retention time was 1090 s.
Consider `COc1ccc(NC(=O)c2[nH]c3cc(C)sc3c2CN2CCOCC2)cc1OC`, for which the RP-LC retention time came out at 635 s.
On to `Cc1cc(C)cc(N2CCC(NC(=O)Nc3ccccc3C)C2=O)c1` (stereo not drawn), for which the RP-LC retention time is 890 s.
In the case of `Cc1cccc(C)c1Nc1c(-c2ccccc2F)nc2ccc(Br)cn12` it was 893 s; in that of `CCN1C(=O)C(C)(C(=O)NCc2ccc(C)cc2)Oc2cccnc21` (stereo not drawn), 912 s; in that of `CCc1nc(-c2csc(S(=O)(=O)N3CCC(C(=O)Nc4ccc(Cl)cc4C)CC3)c2)no1`, 1180 s.
For `Cc1ccc(-c2nc(-c3ccc(-c4noc(CNC(=O)c5ccccc5)n4)cc3)cs2)s1`, the RP-LC retention time came to 1250 s.
For the molecule `CC(=O)N1CCC(n2c(C)nc(C(=O)Nc3ccc4c(c3)OCO4)c2C)CC1`, the RP-LC retention time amounted to 603 s.
In the case of `Cc1c(NC(=O)OC[C@@H]2COCCN2)cn2ncnc(Nc3ccc4c(cnn4Cc4cccc(F)c4)c3)c12` it was 674 s.
In the case of `CCOC(=O)C1=C(CN2CCN(Cc3ccccc3)CC2)NC(=O)NC1c1ccc(OC(C)C)cc1` (stereo not drawn) it was 713 s; in that of `CCOc1ccc(CC(=O)N2CCCC2c2nc(-c3ccccc3)no2)cc1OCC` (stereo not drawn), 1010 s; in that of `CCCc1sc(NCc2cccc(OC)c2O)nc1-c1cc(C)ccc1C`, 911 s.
For the molecule `COc1ccc(NC(=O)CSc2nccnc2Sc2ccc(C)cc2)cc1OC`, the RP-LC retention time is 997 s.
In turn, `COc1ccc(NC(=O)NCCCn2c(C(F)(F)F)nc3cccnc32)c(OC)c1` returned an RP-LC retention time of 708 s.
In the case of `COc1cccc(NC(=O)Cn2nc3nc(N4CCCC(C)C4)ccn3c2=O)c1` (stereo not drawn) it was 768 s; in that of `O=C(NCCN1CCCC1)C1CCN(c2cnn(CC3CC3)c(=O)c2)C1` (stereo not drawn), 577 s; in that of `CC1(C(=O)NCc2ccc(Cl)cc2)CN(S(C)(=O)=O)CC(=O)N1Cc1ccc(F)cc1` (stereo not drawn), 814 s.
`Cc1cc2nn(CC(=O)N3CCCC3)c(=O)n2c(Nc2ccc(F)c(C)c2)n1` had an RP-LC retention time of 643 s.
`COc1cc(C(=O)N2CCN(c3cc(C)n4cnnc4n3)CC2)cc(OC)c1OC` displayed an RP-LC retention time of 575 s.
The molecule `CCc1nn2c(CNC(=O)c3cc(F)ccc3Cl)c(C)nc2s1` yielded an RP-LC retention time of 669 s.
In the case of `Cc1ccc(NC(=O)Nc2ccc3nc(N4CCN(C)CC4)cc(C)c3c2)cc1C` it was 614 s; in that of `Cc1ncsc1CN1CCCC(c2nc(-c3cnccn3)no2)CCNC(=O)CC1` (stereo not drawn), 577 s.
In the case of `COc1ccc(NC(=O)N2CCC(n3c(C(F)(F)F)nc4cccnc43)CC2)cc1`, the RP-LC retention time came to 898 s.
For the molecule `CCS(=O)(=O)Nc1ccc(-c2noc(C(C)NC(=O)c3ccccc3)n2)cc1` (stereo not drawn), the RP-LC retention time came out at 777 s.
Regarding `Oc1c(C(Nc2ccccn2)c2ccccc2F)ccc2cccnc12` (stereo not drawn), the RP-LC retention time amounted to 604 s.
The molecule `CCCn1cc(S(=O)(=O)Nc2cc(C)ccc2F)c2cccnc21` yielded an RP-LC retention time of 921 s.
Consider `O=C(c1ccc(F)c(F)c1)N1CCc2nc(-c3ccc(Cl)cc3)ncc2C1`, for which the RP-LC retention time was determined as 1020 s.
In turn, `CN(C)C(=O)c1ccc2c(c1)N(CC(=O)NCCCc1ccccc1)C(=O)CS2` displayed an RP-LC retention time of 726 s.
On to `Cc1ccc(-c2csc(NC(=O)Cc3ccc(Cl)cc3)n2)cc1`, for which the RP-LC retention time turned out to be 1120 s.
`COc1ccc(Cl)cc1C(=O)Nc1ccc2c(c1)Sc1ncccc1C(=O)N2C` displayed an RP-LC retention time of 946 s.
Under `CCCN1CCN(C(=O)C2CCCN(c3nnc4ccc(C(F)(F)F)cn34)C2)CC1` (stereo not drawn) stands 510 s.
As to `CCOc1ccc(-c2nc(-c3cccc(-c4ccnn4C)c3)no2)cc1OCC`, the RP-LC retention time worked out at 1210 s.
With `Cc1cccc(N2CCN(c3ccc4nnc(CCc5nc(-c6ccc(F)cc6)no5)n4n3)CC2)c1`, the RP-LC retention time was found to be 1130 s.
The molecule `O=C(c1c2c(nc3ccccc13)C(=O)N(C1CCCCC1)C2)N1CCN(c2ccccn2)CC1` had an RP-LC retention time of 643 s.
In turn, `COc1ccc(NC(=O)CN2CCc3[nH]c4c(C)ccc(C)c4c(=O)c3C2)cc1OC` gave an RP-LC retention time of 614 s.
Turning to `O=C(C1COc2ccccc2O1)N1CCN(c2cc(-c3cccs3)[nH]n2)CC1` (stereo not drawn), the RP-LC retention time is 839 s.
As for `Cc1ccc(C(=O)N2CCC3(CCC3N3CCOCC3)CC2)s1` (stereo not drawn), the RP-LC retention time came to 597 s.
`CCC(=O)NCc1nc2c(n1CC)CN(C(=O)c1cccc(Br)c1)CC2` gave an RP-LC retention time of 596 s.
In turn, `Cc1cc(NCc2ccccn2)nc(-n2cc([N+](=O)[O-])cn2)n1` came in with an RP-LC retention time of 564 s.
With `Cc1sc(C)c(S(=O)(=O)N2CCN(c3ccccc3)CC2)c1-c1cc(C(F)(F)F)on1`, the RP-LC retention time is 1300 s.
Consider `CCOC(=O)c1cccc(N2C=C(C#N)S(=O)(=O)c3ccc(Cl)cc32)c1`, for which the RP-LC retention time was found to be 996 s.
Take `Cc1ccc(-c2csc(Cc3nc(-c4ccc(F)cc4)no3)n2)cc1`: the RP-LC retention time came out at 1310 s.
In the case of `Cc1cccc(OCc2nc(CCN(C)C(=O)Nc3ccccc3C)no2)c1` it was 919 s; in that of `O=C(CN1CC=C(c2cnn(-c3ccccc3)c2)CC1)N1CCN(c2ccccc2F)CC1`, 732 s; in that of `Cc1nc2ccn(Cc3ccco3)c(=O)c2cc1C(=O)NCCc1c[nH]c2ccccc12`, 768 s.
In turn, `Cc1ccc(N2CCC(NC(=O)Cc3ccc(Cl)cc3)C2=O)cc1C` (stereo not drawn) came in with an RP-LC retention time of 946 s.
In the case of `CCN1CCN(c2ccc(NC(=O)c3ccc(F)c(Cl)c3)cn2)C1=O` it was 811 s.
For `CCc1ccc(-c2noc(Cn3c(=O)n(-c4ccccc4C)c(=O)c4sccc43)n2)cc1`, the RP-LC retention time worked out at 1140 s.
`O=C(CN1CCN(Cc2cccc(Cl)c2)C1=O)N1CCN(C2CCCCC2)CC1` registered an RP-LC retention time of 648 s.
